Tested on: electrical stimulation induced occlusive aortic thrombosis
Assay: Thrombolytic activity in a rat model of electrical stimulation induced occlusive aortic thrombosis
Assay type: in vivo, CD rats
Conditions: for Area under the curve (cm^2 ± s.e.m.): area under the blood flow trace; for Area under the curve (cm^2 ± s.e.m.) / Number of animals showing thrombolyis: n=8; for Thrombolytic activity (result in words): in the absence of exogenous plasminogen activators
Experimental: The compounds which are usable according to the invention were studied in rats for their activity as thrombolytic agents in a model of electrical stimulation induced occlusive aortic thrombosis.
CD rats weighing 450 g to 500 g are anaesthetized with sodium pentobarbital (60 mg/kg i.p.) and the left renal artery is catheterized. Thrombosis is induced according to the method described by Hladovec (Throm. Haemosts. (1971), 26, 407-410). A segment of abdominal aorta approximately 1 cm in length is exposed between the renal artery and the iliac bifurcation, and an electromagnetic flow probe is placed around this segment to measure blood flow rate, and a bipolar electrode is placed downstream of the probe. After 15 minutes of stabilisation, a 5 mA direct current is applied for 5 minutes to the outer surface of the artery using a stimulator. When the flow rate reaches the zero value, previously determined by clamping the artery between the probe and the electrode, the time to formation of an occlusive thrombus is noted. After 5 minutes of stabilisation of the thrombus, the test compound or the vehicle is injected via the catheter as a 0.5 ml bolus followed by a 60 minute perfusion at 0.1 ml/min. The blood flow rate is recorded during the perfusion period. Thrombolysis is estimated by measuring the area under the blood flow trace, which reflects both the time to, and the extent of recanalisation. The results are expressed as a mean #standard error of the mean.
In animals receiving the vehicle, the abdominal aorta remains occluded throughout the period of administration. In contrast, direct acting thrombin inhibitors increase the area under the curve in a dose-dependent manner and rapidly restore blood flow.

[1] = dose 100 + 20 μg/kg + μg/kg/min
[2] = dose 100 + 20 μg/kg + μg/kg/min (bolus + 60 minute perfusion)
[3] = dose 200 + 40 μg/kg + μg/kg/min
[4] = dose 200 + 40 μg/kg + μg/kg/min (bolus + 60 minute perfusion)
[5] = dose 400 + 80 μg/kg + μg/kg/min

Structure (SMILES) | % Increase (area under the curve vs vehicle) (dose 50 + 10 μg/kg + μg/kg/min) | Area under the curve (cm^2 ± s.e.m.) (dose 50 + 10 μg/kg + μg/kg/min (bolus + 60 minute perfusion)) | Number of animals showing thrombolyis (dose 50 + 10 μg/kg + μg/kg/min) | % Increase (area under the curve vs vehicle) [1] | Area under the curve (cm^2 ± s.e.m.) [2] | Number of animals showing thrombolyis [1] | % Increase (area under the curve vs vehicle) [3] | Area under the curve (cm^2 ± s.e.m.) [4] | Number of animals showing thrombolyis [3] | Thrombolytic activity (result in words) | % Increase (area under the curve vs vehicle) [5] | Area under the curve (cm^2 ± s.e.m.) (dose 400 + 80 μg/kg + μg/kg/min (bolus + 60 minute perfusion)) | Number of animals showing thrombolyis [5] | % Increase (area under the curve vs vehicle) (dose 25 + 5 μg/kg + μg/kg/min) | Area under the curve (cm^2 ± s.e.m.) (dose 25 + 5 μg/kg + μg/kg/min (bolus + 60 minute perfusion)) | Number of animals showing thrombolyis (dose 25 + 5 μg/kg + μg/kg/min)
NC(N)=NCCC[C@H](NC(=O)[C@@H]1CCCN1C(=O)[C@H](N)Cc1ccccc1)C(=O)CCl [PPACK, D-Phe-Pro-Arg chloromethyl ketone] | 572% | 291.7 ± 96.5 cm^2 | 5 | 556% | 284.8 ± 98.9 cm^2 | 5 | 1148% | 542.7 ± 75.2 cm^2 | 7 | have shown thrombolytic activity | – | – | – | – | – | –
CC(=O)N[C@H](Cc1ccccc1)C(=O)N1CCC[C@H]1C(=O)N[C@@H](CCCN=C(N)N)B(O)O [DUP714, Ac-(D-Phe)-Pro-boro-Arg-OH] | – | – | – | 620% | 339.7 ± 84.7 cm^2 | 5 | 667% | 362.3 ± 61.1 cm^2 | 7 | have shown thrombolytic activity | 1118% | 575.3 ± 99.0 cm^2 | 8 | – | – | –
CC1CNc2c(cccc2S(=O)(=O)N[C@@H](CCCNC(=N)N)C(=O)N2CC[C@@H](C)C[C@@H]2C(=O)O)C1 (stereo partly drawn) [Argatroban, argatroban] | – | – | – | 406% | 181.1 ± 99.6 cm^2 | 3 | 1186% | 460.3 ± 86.5 cm^2 | 7 | have shown thrombolytic activity | – | – | – | 284% | 137.5 ± 45.6 cm^2 | 4

Source: US5583113A, “Use of a direct-acting thrombin inhibitor for the manufacture of a medicinal product having thrombolytic activity” (Synthelabo, priority 1992, dated 1996)
